{
  "source": "patent US20240342203A1",
  "about": "“COMPOSITIONS FOR ORAL CANCER OR AN OROPHARYNGEAL CANCER” (GR BIOSYSTEMS, INC., priority 2020, published 2024)",
  "key": {"MMP-2": {"test_system": "MMP-2", "test": "Western blot of MMP-2 protein expression/release in Cal-27 cells treated with PGG", "assay_type": "cell-based", "details": "48 hours, cell media", "method": "(§1) Squamous cell carcinoma cells (Cal 27) were purchased from ATCC (CRL-2095) and grown in DMEM with Glutamax, 10% FBS and Penicillin/Streptomycin (1055-024, 15140-122, 10438-018 Gibco-ThermoFischer Scientific) and kept at 37° C. in a humidified air chamber with 5% CO2. Cells were seeded at 3×10^5 cells/flask for the experiments and then grown to confluency. Cells between 3 and 10 passages were used for all experiments. 1,2,3,4,6-Penta-O-galloyl-β-D-glucose (G7548, Sigma-Aldrich) was dissolved in dimethylsulfoxide (DMSO) to obtain a 100 mM stock solution. Subsequent dilutions were done using water, and no flask contained more than 0.5 μL of DMSO (0.01%). […] During the protein extraction, media were collected, flash frozen and saved for BCA, Western Blot, and ELISA analysis. […] The proteins were detected and visualized by fluorescence using the LI-COR Odyssey Classic Infrared Imaging system (LI-COR Biosciences). Densitometry analysis of specific bands was performed with the Image Studio software provided by LI-COR Biosciences and the images analyzed using ImageStudio (LI-COR Biosciences). Statistical analysis, including one-way ANOVA with Dunnett's Multiple Comparison Test and Bonferroni, was done using GraphPad Prism 7 (Graph-Pad Software, La Jolla, CA, USA). p values were calculated using the unpaired two-sided Student's t test to compare groups, with statistical significance set at p<0.05."}, "MMP-9": {"test_system": "MMP-9", "test": "Western blot of MMP-9 protein expression/secretion in Cal-27 cells treated with PGG", "assay_type": "cell-based", "details": "48 hours", "method": "as §1"}, "MMP-13": {"test_system": "MMP-13", "test": "Western blot of MMP-13 protein expression/release in Cal-27 cells treated with PGG", "assay_type": "cell-based", "details": "48 hours", "method": "as §1"}, "Stat3": {"test_system": "Stat3", "test": "Western blot of Stat3 and pStat3 in Cal-27 cells treated with PGG", "assay_type": "cell-based", "details": "48 hours", "method": "as §1"}, "MMP-2 gene": {"test_system": "MMP-2 gene", "test": "Real time quantitative PCR of MMP-2 gene expression in Cal-27 cells", "assay_type": "cell-based, Human", "method": "(§2) Squamous cell carcinoma cells (Cal 27) were purchased from ATCC (CRL-2095) and grown in DMEM with Glutamax, 10% FBS and Penicillin/Streptomycin (1055-024, 15140-122, 10438-018 Gibco-ThermoFischer Scientific) and kept at 37° C. in a humidified air chamber with 5% CO2. Cells were seeded at 3×10^5 cells/flask for the experiments and then grown to confluency. Cells between 3 and 10 passages were used for all experiments. 1,2,3,4,6-Penta-O-galloyl-β-D-glucose (G7548, Sigma-Aldrich) was dissolved in dimethylsulfoxide (DMSO) to obtain a 100 mM stock solution. Subsequent dilutions were done using water, and no flask contained more than 0.5 μL of DMSO (0.01%). […] After washing the tissue culture with 1× phosphate buffered saline (PBS), the cells were lysed, and the RNA purified using a Qiagen RNeasy mini kit using the manufacturer's recommended protocol. All samples were treated with Qiagen DNase. One microgram of RNA was used for reverse transcription and subsequent SYBR® Green real time PCR for the genes of interest as previously described. […] Real time quantitative PCR was performed using an Applied Biosciences StepOne plus instrument and analyzed with StepOne software v2.3. The relative amounts of transcripts from each gene were normalized to reference gene GAPDH and calculated as follows: ΔΔCT=the average ΔCT of […]−the average ΔCT of […], and their fold difference=2−ΔΔCT."}, "MMP-9 gene": {"test_system": "MMP-9 gene", "test": "Real time quantitative PCR of MMP-9 gene expression in Cal-27 cells", "assay_type": "cell-based, Human", "details": "any PGG dose (1, 2.5, 5, 10 and 20 μM), n=4, p>0.05", "method": "as §2"}, "MMP-13 gene": {"test_system": "MMP-13 gene", "test": "Real time quantitative PCR of MMP-13 gene expression in Cal-27 cells", "assay_type": "cell-based, Human", "details": "10 or 20 μM PGG, p<0.05 and p<0.001", "method": "as §2"}, "MMP-14 gene": {"test_system": "MMP-14 gene", "test": "Real time quantitative PCR of MMP-14 gene expression in Cal-27 cells", "assay_type": "cell-based, Human", "details": "PGG 10-20 μM", "method": "as §2"}, "Cal 27 cells": {"test_system": "Cal 27 cells", "test": "Transmembrane/Boyden Matrigel invasion assay", "assay_type": "cell-based", "details": "for percentage of cells invading the membrane compared with untreated control: 24 hour treatment; for Number of cells invading through Matrigel: 24 hour", "method": "Squamous cell carcinoma cells (Cal 27) were purchased from ATCC (CRL-2095) and grown in DMEM with Glutamax, 10% FBS and Penicillin/Streptomycin (1055-024, 15140-122, 10438-018 Gibco-ThermoFischer Scientific) and kept at 37° C. in a humidified air chamber with 5% CO2. Cells were seeded at 3×10^5 cells/flask for the experiments and then grown to confluency. Cells between 3 and 10 passages were used for all experiments. Transmembrane/Boyden assay plates with Matrigel were purchased from Corning. DMEM with 10% FBS was used as a chemoattractant in the lower chamber while the cells in the upper chamber were cultured in DMEM with 1% FBS. Wells were prepared with different concentrations of PGG (0-10 μM) and left to incubate for 24 hour. After 24 hour media has discarded and the cells invading the Matrigel were counted according to established protocols."}, "TNF-α": {"test_system": "TNF-α", "details": "doses as low as 5 μM; cited from earlier work"}, "[1]": {"test_system": "peripheral blood mononuclear cells (PBMCs)", "details": "PBMCs treated with PGG; cited from earlier work"}, "[2]": {"test_system": "toll-like receptors 4 (TLR4)", "details": "peritoneal and colonic macrophages; cited from earlier work"}, "MyD88 adaptor protein": {"test_system": "MyD88 adaptor protein", "details": "peritoneal and colonic macrophages; cited from earlier work"}},
  "note": "Entries after “also recorded” stand apart in the source; their conditions may differ.",
  "data": [
    {"smiles": "O=C(OC[C@H]1O[C@@H](OC(=O)c2cc(O)c(O)c(O)c2)[C@H](OC(=O)c2cc(O)c(O)c(O)c2)[C@@H](OC(=O)c2cc(O)c(O)c(O)c2)[C@@H]1OC(=O)c1cc(O)c(O)c(O)c1)c1cc(O)c(O)c(O)c1", "note": "[PGG, 1,2,3,4,6-penta-O-galloyl-β-D-glucose]", "values": [
      {"measurement": "MMP-2 expression vs non-treated group", "setting": "MMP-2; Cal-27 cells, 10 μM PGG, n=4, p<0.01", "value": "significantly decreased; also recorded: significantly lower"},
      {"measurement": "MMP-2 expression vs non-treated group", "setting": "MMP-2; Cal-27 cells, 1, 2.5 or 5 μM PGG, n=4, p>0.05", "value": "not significantly different"},
      {"measurement": "MMP-9 expression vs non-treated group", "setting": "MMP-9; 1 or 2.5 μM PGG, normalized to Histone H3, n=4, p>0.05", "value": "not significantly different"},
      {"measurement": "MMP-9 expression vs non-treated group", "setting": "MMP-9; 5 or 10 μM PGG, normalized to Histone H3, n=4, p<0.05 and p<0.01", "value": "significantly decreased; also recorded: significantly lower"},
      {"measurement": "MMP-13 expression vs non-treated group", "setting": "MMP-13; Cal-27 cells, 10 μM PGG, normalized to Histone H3, n=4, p<0.01", "value": "significantly decreased; also recorded: significantly lower"},
      {"measurement": "MMP-13 expression vs non-treated group", "setting": "MMP-13; Cal-27 cells, 1, 2.5 or 5 μM PGG, normalized to Histone H3, n=4, p>0.05", "value": "not significantly different"},
      {"measurement": "Stat3 phosphorylation (pStat3)", "setting": "Stat3; PGG at different concentrations, normalized to Histone H3, n=4, p<0.0001", "value": "significantly decreases; also recorded: decrease of Stat3 phosphorylation"},
      {"measurement": "Non-phosphorylated / total Stat3 vs non-treated cells", "setting": "Stat3; PGG at varying concentrations, n=4, p<0.0001", "value": "significantly higher; also recorded: increase in total Stat3"},
      {"measurement": "MMP-2 gene expression (mRNA)", "setting": "MMP-2 gene; PGG 5 and 10 μM, GAPDH housekeeping, n=4, p<0.0001", "value": "significantly decreased"},
      {"measurement": "MMP-2 gene expression (mRNA) vs non-treated", "setting": "MMP-2 gene; PGG 10-20 μM", "value": "reduces"},
      {"measurement": "MMP-9 gene expression (mRNA) vs non-treated group", "setting": "MMP-9 gene", "value": "not significantly different; also recorded: did not significantly decrease"},
      {"measurement": "MMP-13 gene expression (mRNA)", "setting": "MMP-13 gene", "value": "decreased; also recorded: reduces"},
      {"measurement": "MMP-14 gene expression (mRNA) vs non-treated", "setting": "MMP-14 gene", "value": "reduces"},
      {"measurement": "percentage of cells invading the membrane compared with untreated control", "setting": "Cal 27 cells; 0.5 μM PGG", "value": 44.5, "unit": "%"},
      {"measurement": "percentage of cells invading the membrane compared with untreated control", "setting": "Cal 27 cells; 10 μM PGG (maximum effect)", "value": 22.3, "unit": "%"},
      {"measurement": "Number of cells invading through Matrigel", "setting": "Cal 27 cells; PGG 0.5 and 1 μM, n=4, p<0.001", "value": "significantly lower"},
      {"measurement": "Number of cells invading through Matrigel", "setting": "Cal 27 cells; PGG 2.5, 5 and 10 μM, n=4, p<0.0001", "value": "significantly lower"},
      {"measurement": "suppression of LPS-induced TNF-α production", "setting": "TNF-α", "value": "≤ 90", "unit": "%"},
      {"measurement": "production of TNF-α and IL-1β", "setting": "[1]", "value": "resulted in the production of TNF-α and IL-1β"},
      {"measurement": "interference with binding of LPS to TLR4", "setting": "[2]", "value": "did not interfere"},
      {"measurement": "interaction with MyD88 adaptor protein; effect on TNF-α, IL-1β and IL-6 production", "setting": "MyD88 adaptor protein", "value": "interacted directly with MyD88 adaptor protein thereby decreasing the production of TNF-α, IL-1β and IL-6"}
    ]}
  ]
}
